Assay results reported in patent US11116727B2, “Preparation containing 6,7-unsaturated-7-carbamoyl morphinan derivatives” (Shionogi & Co., Ltd., priority 2012, dated 2021).

Assay: Water solubility of the p-toluenesulfonic acid salt at different pH
Format: physicochemical
Method: The water solubility of p-toluenesulfonic acid salt of the compound represented by the above formula (IA), namely 17-(cyclopropylmethyl)-6,7-didehydro-4,5α-epoxy-3,6,14-trihydroxy-N-[2-(3-phenyl-1,2,4-oxadiazol-5-yl) propan-2-yl]morphinan-7-carboxamide 4-methylbenzene sulfonic acid is more than 1,000 μg/mL in pH 1 or 4, but the water solubility in pH 7 decreases than the solubility in pH 1 or 4.

CC(C)(NC(=O)C1=C(O)[C@@H]2Oc3c(O)ccc4c3[C@@]23CCN(CC2CC2)[C@H](C4)[C@]3(O)C1)c1nc(-c2ccccc2)no1 [17-(cyclopropylmethyl)-6,7-didehydro-4,5α-epoxy-3,6,14-trihydroxy-N-[2-(3-phenyl-1,2,4-oxadiazol-5-yl)propan-2-yl]morphinan-7-carboxamide 4-methylbenzenesulfonic acid]
water solubility (pH 7, compared with pH 1 or 4): decreases
solubility (water, simulated gastric fluid, pH 1 or 4): > 1000 µg/mL
